Key:
[1] = Regeneration of the parent drug by rat plasma hydrolysis of the prodrug; format: in vitro ADME; settings: 37° C., initial prodrug concentration 6.3×10^-5 M, n=2, HPLC
Description: The rate of hydrolysis of the acetoxyisopropyl carbamate prodrug of [3(R)-2-(piperidine-4-yl)ethyl]-2-piperidone-1-[(3R)-methyl-5-ketopentanoic acid]by plasma enzymes was studied by measuring the formation of the parent amine drug at 37° C. in rat plasma. The reaction was initiated by adding an aqueous solution of the carbamate prodrug to the reaction medium pre-equilibrated at 37° C. in a thermostated water bath. The initial concentration of the prodrug in rat plasma was 6.3×10^-5 M. Samples (100 μl) were withdrawn at intervals and mixed with saturated ammonium sulfate (200 μl), vortex mixed for 10 seconds and centrifuged for 5 minutes at 14,000 g to precipitate plasma proteins. The supernatant was injected directly and analyzed by HPLC on a 20 cm Brownlee Spheri-5 RP-18 column combined with a similar 3 cm guard column. The mobile phase used for the analysis was 0.01M K2 HPO4 buffer (adjusted to pH 6.5 with phosphoric acid) containing 3% acetonitrile at a flow rate of 1 mL/min. The retention time under these conditions for the amine drug was approximately 15 minutes. The concentration of the compounds was measured at 210 nm using a variable wavelength. UV detector.

[2] = oral administration to rats; cited from earlier work

Structure (SMILES)	half-life at 63 µM [1]	regeneration of the parent drug [2]
CC(=O)OC(C)(C)OC(=O)N1CCC(CC[C@@H]2CCCN(CC(=O)N[C@H](C)CC(=O)O)C2=O)CC1 [acetoxyisopropyl carbamate prodrug, {3(R)-2-{1-[2(Acetoxy)isopropoxycarbonylpiperidine-4yl]-ethyl}piperidone-1}-acetyl-3(R)-methyl-β-alanine]	32 ± 6 min	
CCn1cc(C(=O)O)c(=O)c2cc(F)c(N3CCN(Cc4oc(=O)oc4C)CC3)cc21 [alkylated nofloxacin]		regenerated the parent drag

Source: patent US5684018A, “Acyloxyisopropyl carbamates as prodrugs for amine drugs” (Merck & Co., Inc., priority 1994, dated 1997)
